The target of one test is CK1ε (Homo sapiens (Human), UniProt P49674). Kind of test: CK1ε kinase assay (Caliper LABCHIP electrophoretic separation of fluoresceinated peptide substrate and product). It counts as biochemical. As to conditions: 200 pM enzyme, 50 μM ATP, 22 hours at room temperature. The method in brief:
(§1)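 Incubated for twenty-two hours at ambient temperature, then quenched with EDTA and analyzed by electrophoretic separation of unphosphorylated and phosphorylated peptide.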

The target in a further test is CK1δ (Homo sapiens (Human), UniProt P48730). Kind of test: CK1δ kinase assay (Caliper LABCHIP electrophoretic separation of fluoresceinated peptide substrate and product). It counts as biochemical. As to conditions: 200 pM enzyme, 50 μM ATP, 22 hours at room temperature. The method in brief: as §1
CK1δ, sequence (P48730 whole entry): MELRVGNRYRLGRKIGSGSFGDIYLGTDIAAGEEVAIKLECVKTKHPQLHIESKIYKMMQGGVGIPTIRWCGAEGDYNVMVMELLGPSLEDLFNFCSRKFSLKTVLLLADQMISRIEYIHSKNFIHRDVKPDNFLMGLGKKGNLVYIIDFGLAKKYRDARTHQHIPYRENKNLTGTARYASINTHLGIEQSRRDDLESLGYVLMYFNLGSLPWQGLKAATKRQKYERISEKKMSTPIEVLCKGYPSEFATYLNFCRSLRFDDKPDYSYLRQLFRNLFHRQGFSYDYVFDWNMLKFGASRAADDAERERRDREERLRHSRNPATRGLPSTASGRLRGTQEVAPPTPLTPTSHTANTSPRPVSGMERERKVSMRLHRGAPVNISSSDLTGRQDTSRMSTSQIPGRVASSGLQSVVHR

Usually IC50 stands for the point on the concentration scale where inhibition reaches its midpoint.

CK1ε, sequence (P49674 whole entry): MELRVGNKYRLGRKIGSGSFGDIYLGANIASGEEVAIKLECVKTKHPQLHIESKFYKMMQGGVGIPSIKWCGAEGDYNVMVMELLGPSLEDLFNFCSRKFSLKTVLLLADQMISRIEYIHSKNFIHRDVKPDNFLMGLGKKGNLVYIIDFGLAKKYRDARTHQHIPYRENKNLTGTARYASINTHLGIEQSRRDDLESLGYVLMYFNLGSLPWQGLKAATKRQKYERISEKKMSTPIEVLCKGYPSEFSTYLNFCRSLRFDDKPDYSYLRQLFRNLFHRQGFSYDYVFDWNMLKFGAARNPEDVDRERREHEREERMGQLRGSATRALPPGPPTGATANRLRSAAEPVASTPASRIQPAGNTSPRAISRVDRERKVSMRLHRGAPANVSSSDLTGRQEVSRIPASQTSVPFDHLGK

Regarding `O=C(Nc1cn2nc(-c3c(-c4ccc(F)cc4)nc4n3CCN(C(=O)CC(F)(F)F)C4)ccc2n1)c1ccnc(F)c1` [Compound 461, 2-Fluoro-N-(6-(2-(4-fluorophenyl)-7-(3,3,3-trifluoropropanoyl)-5,6,7,8-tetrahydroimidazo[1,2-a]pyrazin-3-yl)imidazo[1,2-b]pyridazin-2-yl)isonicotinamide], the half-maximal inhibitory concentration (IC50) stood at 2.6 nM against CK1ε and 0.6 nM at CK1δ.

Consider `O=C(Nc1cn2nc(-c3c(-c4ccc(F)cc4)nc4n3CCN(C(=O)CCC(F)(F)F)C4)ccc2n1)c1ccnc(F)c1` [Compound 462, 2-Fluoro-N-(6-(2-(4-fluorophenyl)-7-(4,4,4-trifluorobutanoyl)-5,6,7,8-tetrahydroimidazo[1,2-a]pyrazin-3-yl)imidazo[1,2-b]pyridazin-2-yl)isonicotinamide], for which the IC50 on CK1ε was found to be 6.5 nM; on CK1δ, 1.2 nM.

As to `CC(C)C(=O)N1CCn2c(nc(-c3ccc(F)cc3)c2-c2ccc3nc(NC(=O)c4ccnc(F)c4)cn3n2)C1` [Compound 463, 2-Fluoro-N-(6-(2-(4-fluorophenyl)-7-isobutyryl-5,6,7,8-tetrahydroimidazo[1,2-a]pyrazin-3-yl)imidazo[1,2-b]pyridazin-2-yl)isonicotinamide], the IC50 on CK1ε came out at 3.8 nM; on CK1δ it was 0.5 nM.

On to `CC(C)(C)C(=O)N1CCn2c(nc(-c3ccc(F)cc3)c2-c2ccc3nc(NC(=O)c4ccnc(F)c4)cn3n2)C1` [Compound 464, 2-Fluoro-N-(6-(2-(4-fluorophenyl)-7-pivaloyl-5,6,7,8-tetrahydroimidazo[1,2-a]pyrazin-3-yl)imidazo[1,2-b]pyridazin-2-yl)isonicotinamide], for which the IC50 is 2.3 nM against CK1ε and 0.1 nM on CK1δ.

Take `CC(C)(C(=O)N1CCn2c(nc(-c3ccc(F)cc3)c2-c2ccc3nc(NC(=O)c4ccnc(F)c4)cn3n2)C1)C(F)(F)F` [Compound 465, 2-Fluoro-N-(6-(2-(4-fluorophenyl)-7-(3,3,3-trifluoro-2,2-dimethylpropanoyl)-5,6,7,8-tetrahydroimidazo[1,2-a]pyrazin-3-yl)imidazo[1,2-b]pyridazin-2-yl)isonicotinamide]: the results for the IC50 on CK1ε and on CK1δ were 5 nM and 0.6 nM, respectively.

Consider `O=C(Nc1cn2nc(-c3c(-c4ccc(F)cc4)nc4n3CCN(C(=O)C3CC3(F)F)C4)ccc2n1)c1ccnc(F)c1` (centres unmarked) [Compound 466, N-(6-(7-(2,2-Difluorocyclopropanecarbonyl)-2-(4-fluorophenyl)-5,6,7,8-tetrahydroimidazo[1,2-a]pyrazin-3-yl)imidazo[1,2-b]pyridazin-2-yl)-2-fluoroisonicotinamide], for which the figures for the IC50 at CK1ε and at CK1δ were 1.5 nM and 0.2 nM, respectively.

Regarding `O=C(Nc1cn2nc(-c3c(-c4ccc(F)cc4)nc4n3CCN(C(=O)C3(C(F)(F)F)CCC3)C4)ccc2n1)c1ccnc(F)c1` [Compound 467, 2-Fluoro-N-(6-(2-(4-fluorophenyl)-7-(1-(trifluoromethyl)cyclobutanecarbonyl)-5,6,7,8-tetrahydroimidazo[1,2-a]pyrazin-3-yl)imidazo[1,2-b]pyridazin-2-yl)isonicotinamide], the IC50 amounted to 6.1 nM on CK1ε and 0.8 nM at CK1δ.

For `CC1(C(=O)N2CCn3c(nc(-c4ccc(F)cc4)c3-c3ccc4nc(NC(=O)c5ccnc(F)c5)cn4n3)C2)COC1` [Compound 468, 2-Fluoro-N-(6-(2-(4-fluorophenyl)-7-(3-methyloxetane-3-carbonyl)-5,6,7,8-tetrahydroimidazo[1,2-a]pyrazin-3-yl)imidazo[1,2-b]pyridazin-2-yl)isonicotinamide], the IC50 is 3.9 nM at CK1ε and 0.5 nM against CK1δ.

As to `O=C(Nc1cn2nc(-c3c(-c4ccc(F)cc4)nc4n3CCN(C(=O)C3CC3)C4)ccc2n1)c1ccnc(F)c1` [Compound 469, N-(6-(7-(Cyclopropanecarbonyl)-2-(4-fluorophenyl)-5,6,7,8-tetrahydroimidazo[1,2-a]pyrazin-3-yl)imidazo[1,2-b]pyridazin-2-yl)-2-fluoroisonicotinamide], the IC50 against CK1ε is 12.9 nM; on CK1δ it was 2.3 nM.

Turning to `CC(C)(O)C(=O)N1CCn2c(nc(-c3ccc(F)cc3)c2-c2ccc3nc(NC(=O)c4ccnc(F)c4)cn3n2)C1` [Compound 470, 2-Fluoro-N-(6-(2-(4-fluorophenyl)-7-(2-hydroxy-2-methylpropanoyl)-5,6,7,8-tetrahydroimidazo[1,2-a]pyrazin-3-yl)imidazo[1,2-b]pyridazin-2-yl)isonicotinamide], the 50% inhibitory concentration (IC50) on CK1ε stood at 8.1 nM; on CK1δ it was 1.1 nM.

Take `N#CC1(C(=O)N2CCn3c(nc(-c4ccc(F)cc4)c3-c3ccc4nc(NC(=O)c5ccnc(F)c5)cn4n3)C2)CC1` [Compound 471, N-(6-(7-(1-Cyanocyclopropanecarbonyl)-2-(4-fluorophenyl)-5,6,7,8-tetrahydroimidazo[1,2-a]pyrazin-3-yl)imidazo[1,2-b]pyridazin-2-yl)-2-fluoroisonicotinamide]: the IC50 against CK1ε turned out to be 3.5 nM; against CK1δ it was 0.5 nM.

Take `O=C(Nc1cn2nc(-c3c(-c4ccc(F)cc4)nc4n3CCN(C(=O)C3(C(F)(F)F)CC3)C4)ccc2n1)c1ccnc(F)c1` [Compound 472, 2-Fluoro-N-(6-(2-(4-fluorophenyl)-7-(1-(trifluoromethyl)cyclopropanecarbonyl)-5,6,7,8-tetrahydroimidazo[1,2-a]pyrazin-3-yl)imidazo[1,2-b]pyridazin-2-yl)isonicotinamide]: the IC50 at CK1ε is 4.5 nM; against CK1δ it was 0.6 nM.

On to `CC1(C)CC1C(=O)N1CCn2c(nc(-c3ccc(F)cc3)c2-c2ccc3nc(NC(=O)c4ccnc(F)c4)cn3n2)C1` (centres unmarked) [Compound 473, N-(6-(7-(2,2-Dimethylcyclopropanecarbonyl)-2-(4-fluorophenyl)-5,6,7,8-tetrahydroimidazo[1,2-a]pyrazin-3-yl)imidazo[1,2-b]pyridazin-2-yl)-2-fluoroisonicotinamide], for which the figures for the IC50 at CK1ε and against CK1δ were 2.9 nM and 0.5 nM, respectively.

For `COC(=O)N1CCn2c(nc(-c3ccc(F)cc3)c2-c2ccc3nc(NC(=O)c4ccnc(F)c4)cn3n2)C1` [Compound 474, Methyl 3-(2-(2-fluoroisonicotinamido)imidazo[1,2-b]pyridazin-6-yl)-2-(4-fluorophenyl)-5,6-dihydroimidazo[1,2-a]pyrazine-7(8H)-carboxylate], the IC50 amounted to 9.3 nM against CK1ε and 1 nM against CK1δ.

For `CS(=O)(=O)N1CCn2c(nc(-c3ccc(F)cc3)c2-c2ccc3nc(NC(=O)c4ccnc(F)c4)cn3n2)C1` [Compound 476, 2-Fluoro-N-(6-(2-(4-fluorophenyl)-7-(methylsulfonyl)-5,6,7,8-tetrahydroimidazo[1,2-a]pyrazin-3-yl)imidazo[1,2-b]pyridazin-2-yl)isonicotinamide], the figures for the half-maximal inhibitory concentration (IC50) at CK1ε and at CK1δ were 2.5 nM and 0.3 nM, respectively.

Turning to `O=C(Nc1cn2nc(-c3c(-c4ccc(F)cc4)nc4n3CCN(CCC(F)(F)F)C4)ccc2n1)c1ccnc(F)c1` [Compound 478, 2-Fluoro-N-(6-(2-(4-fluorophenyl)-7-(3,3,3-trifluoropropyl)-5,6,7,8-tetrahydroimidazo[1,2-a]pyrazin-3-yl)imidazo[1,2-b]pyridazin-2-yl)isonicotinamide], the figures for the half-inhibitory concentration (IC50) against CK1ε and on CK1δ were 2.3 nM and 0.4 nM, respectively.
